The text below walks through data of ChEMBL document CHEMBL3217527, “The Synthesis and Evaluation of Dihydroquinazolin-4-ones and Quinazolin-4-ones as Thyroid Stimulating Hormone Receptor Agonists” (Medchemcomm, 2011).

Structures are written as SMILES.

Lutropin-choriogonadotropic hormone receptor, sequence (P22888 whole entry): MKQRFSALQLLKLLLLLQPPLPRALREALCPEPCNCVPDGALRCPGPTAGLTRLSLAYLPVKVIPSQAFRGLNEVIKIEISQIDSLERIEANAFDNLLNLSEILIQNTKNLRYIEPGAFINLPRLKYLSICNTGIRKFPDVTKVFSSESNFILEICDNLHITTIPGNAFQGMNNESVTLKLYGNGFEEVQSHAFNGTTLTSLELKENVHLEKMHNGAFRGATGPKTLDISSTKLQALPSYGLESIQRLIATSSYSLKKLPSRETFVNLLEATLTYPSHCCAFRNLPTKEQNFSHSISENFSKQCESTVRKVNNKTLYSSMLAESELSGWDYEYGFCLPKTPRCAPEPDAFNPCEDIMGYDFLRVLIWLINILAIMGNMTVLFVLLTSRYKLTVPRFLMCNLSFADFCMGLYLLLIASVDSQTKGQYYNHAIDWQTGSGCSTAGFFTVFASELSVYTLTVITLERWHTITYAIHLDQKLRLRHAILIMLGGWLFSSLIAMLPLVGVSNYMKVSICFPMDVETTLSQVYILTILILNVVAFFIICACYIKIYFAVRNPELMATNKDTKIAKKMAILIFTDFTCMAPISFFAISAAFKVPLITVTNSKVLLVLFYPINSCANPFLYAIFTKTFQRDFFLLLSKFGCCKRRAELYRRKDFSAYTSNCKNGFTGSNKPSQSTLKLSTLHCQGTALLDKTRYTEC

One data set deals with T1, Thyrotropin receptor (Homo sapiens, UniProt P16473). Put plainly: Agonist activity at TSHR (unknown origin).
T1 sequence (P16473 whole entry): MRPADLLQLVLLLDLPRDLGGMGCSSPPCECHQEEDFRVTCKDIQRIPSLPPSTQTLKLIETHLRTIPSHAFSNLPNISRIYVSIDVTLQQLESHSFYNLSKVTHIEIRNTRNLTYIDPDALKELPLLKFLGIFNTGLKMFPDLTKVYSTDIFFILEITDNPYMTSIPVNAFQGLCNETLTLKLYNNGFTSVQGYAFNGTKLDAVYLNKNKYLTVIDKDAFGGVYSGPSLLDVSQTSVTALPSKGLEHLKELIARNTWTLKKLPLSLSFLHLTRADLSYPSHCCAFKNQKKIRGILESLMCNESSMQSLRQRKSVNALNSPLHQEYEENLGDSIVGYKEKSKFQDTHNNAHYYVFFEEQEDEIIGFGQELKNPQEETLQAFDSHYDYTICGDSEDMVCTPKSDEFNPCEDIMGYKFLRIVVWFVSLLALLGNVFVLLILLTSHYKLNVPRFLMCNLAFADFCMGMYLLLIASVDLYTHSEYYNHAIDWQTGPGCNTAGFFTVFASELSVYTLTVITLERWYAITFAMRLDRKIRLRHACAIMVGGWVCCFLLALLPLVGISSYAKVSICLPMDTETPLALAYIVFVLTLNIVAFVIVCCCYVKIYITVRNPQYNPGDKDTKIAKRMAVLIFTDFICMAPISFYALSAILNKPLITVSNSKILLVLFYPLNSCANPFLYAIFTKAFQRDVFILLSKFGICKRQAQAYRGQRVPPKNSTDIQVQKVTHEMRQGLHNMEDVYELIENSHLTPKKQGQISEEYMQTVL
Details: not given
What is called EC50 is the concentration at which the effect is half-maximal. With `COc1cccc(-c2nc(SC)nc3sc(C(=O)NC(C)(C)C)c(N)c23)c1`, a half-maximal response (EC50) required 7700 nM.

The next data set addresses T1, Thyrotropin receptor. Put plainly: Agonist activity at TSHR (unknown origin) transiently transfected HEK-EM293 cells assessed as cAMP level after 1 hr by ELISA. The class given is functional, cell-based.
Details: not given
(Cyclic AMP is a second messenger, typically raised through Gs and lowered through Gi signalling.)
Regarding `CCCCN1C(=O)c2ccccc2NC1c1ccc(OC)c(COc2ccc(NC(C)=O)cc2)c1` (configuration not stated), the concentration for a half-maximal effect (EC50) came to 830 nM. Consider `COc1ccc(C2Nc3ccccc3C(=O)N2Cc2ccccc2)cc1COc1ccc(NC(C)=O)cc1` (configuration not stated), for which the EC50 amounted to 290 nM. On the same count and under the same terms, the same measure for `COc1ccc(C2Nc3ccccc3C(=O)N2Cc2ccco2)cc1COc1ccc(NC(C)=O)cc1` (configuration not stated): 1160 nM; for `COc1ccc(-c2nc3ccccc3c(=O)n2Cc2ccccc2)cc1COc1ccc(NC(C)=O)cc1`: 960 nM. The same measure, in the same setting: to `COc1ccc(-c2nc3ccccc3c(=O)n2Cc2ccco2)cc1COc1ccc(NC(C)=O)cc1` belongs 930 nM; to `COc1ccc(C2Nc3cccc(OC)c3C(=O)N2Cc2ccccc2)cc1COc1ccc(NC(C)=O)cc1` (configuration not stated), 4480 nM; to `COc1ccc(C2Nc3cccc(O)c3C(=O)N2Cc2ccccc2)cc1COc1ccc(NC(C)=O)cc1` (configuration not stated), 90 nM. Still for that read-out and setting: to `COc1ccc(OCc2cc(C3Nc4ccccc4C(=O)N3Cc3ccccc3)ccc2OC)cc1` (configuration not stated) belongs 2160 nM; to `COc1ccc(C2Nc3ccccc3C(=O)N2Cc2ccncc2)cc1COc1ccc(NC(C)=O)cc1` (configuration not stated), 3980 nM. For the molecule `COc1ccc(C2Nc3ccccc3C(=O)N2CCc2ccccc2)cc1COc1ccc(NC(C)=O)cc1` (configuration not stated), the concentration giving a half-maximal response (EC50) was 430 nM. On the same count and under the same terms, the same measure for `COc1ccc(C2Nc3ccccc3C(=O)N2c2ccccc2)cc1COc1ccc(NC(C)=O)cc1` (configuration not stated): 5090 nM. As to `COc1ccc(C2Nc3ccc(O)cc3C(=O)N2Cc2ccccc2)cc1COc1ccc(NC(C)=O)cc1` (configuration not stated), the EC50 turned out to be 330 nM.

Consider `COc1ccc(C2Nc3ccccc3C(=O)N2Cc2ccccc2)cc1COc1cccc(NC(C)=O)c1` (configuration not stated), for which the half-maximal effective concentration (EC50) stood at 4340 nM. Still for that read-out and setting: to `COc1ccc(C2Nc3cccc(F)c3C(=O)N2Cc2ccccc2)cc1COc1ccc(NC(C)=O)cc1` (configuration not stated) belongs 280 nM; to `COc1ccc(C2Nc3cccc(O)c3C(=O)N2Cc2ccccc2)cc1CSc1ccc(NC(C)=O)cc1` (configuration not stated), 18 nM. The same measure, in the same setting: to `COc1ccc(-c2nc3cccc(O)c3c(=O)n2Cc2ccccc2)cc1COc1ccc(NC(C)=O)cc1` belongs 550 nM. Still for that read-out and setting: the same measure for `COc1ccc(C2Nc3ccccc3C(=O)N2Cc2ccccc2)cc1CSc1ccc(NC(C)=O)cc1` (configuration not stated): 80 nM; for `CC(=O)Nc1ccc(OCc2cccc(C3Nc4ccccc4C(=O)N3Cc3ccccc3)c2)cc1` (configuration not stated): 1860 nM; for `COc1ccc(C2Nc3ccccc3C(=O)N2Cc2ccccc2)cc1COc1ccccc1` (configuration not stated): 2570 nM.

The next data set addresses Lutropin-choriogonadotropic hormone receptor (Homo sapiens, UniProt P22888). Put plainly: Agonist activity at LHCGR (unknown origin).
Details: not given
Consider `COc1cccc(-c2nc(SC)nc3sc(C(=O)NC(C)(C)C)c(N)c23)c1`, for which it took 220 nM to reach a half-maximal effect (EC50).

Test system in the next data set: not listed separately
Put plainly: Half life in acidic aqueous conditions at pH 2. The conditions noted are these: acidic aqueous solution. It is filed as physicochemical.
For orientation: half-life means the time in which the quantity being followed falls by half. Low values mean rapid decline, high ones slow decline. `COc1ccc(C2Nc3cccc(O)c3C(=O)N2Cc2ccccc2)cc1COc1ccc(NC(C)=O)cc1` (configuration not stated) showed a half-life of 3 h.
